From patent US20160298165A1 (priority 2013, published 2016)

Tests used:
[1] = system: M. tuberculosis Δsdh1 mutant; type: cell-based; conditions: aerobic, at two and five days
[2] = system: INH-resistant M. tuberculosis strains (H37Rv inhA S94A, H37Rv PmabAinhA c-15t, H37Rv katG g371del); type: cell-based, Mycobacterium tuberculosis
[3] = system: M. tuberculosis H37Rv rpoB H445R; type: cell-based, Mycobacterium tuberculosis
[4] = system: M. tuberculosis H37Rv; type: cell-based, Mycobacterium tuberculosis
[5] = system: M. tuberculosis parental, sdh1 and sdh2 mutant strains
[6] = system: M. tuberculosis Δsdh1 or Δsdh2 mutants; type: cell-based; conditions: hypoxic conditions

SMILES: CCc1cc(C(N)=S)ccn1 [ETH]
- clearing of the Δsdh1 mutant by single drugs vs parental [1]: cleared more rapidly

SMILES: N[C@@H](CS)C(=O)O [cysteine]
- growth of INH-resistant strains [2]: not impaired
- growth of H37Rv rpoB H445R [3]: grew well
- Frequency of mutation for INH, Average [4]: 7 × 10^−7
- Frequency of mutation for RIF [4]: 2 × 10^−8
- Frequency of mutation for RIF, Average [4]: 2 × 10^−8
- decrease in the frequency of spontaneous INH-resistant mutants [4]: ≤ 10 fold
- decrease in the frequency of spontaneous RIF-resistant mutants [4]: 3 fold

SMILES: CN[C@@H]1[C@H](O[C@H]2[C@H](O[C@H]3[C@H](O)[C@@H](O)[C@H](N=C(N)N)[C@@H](O)[C@@H]3N=C(N)N)O[C@@H](C)[C@]2(O)C=O)O[C@@H](CO)[C@H](O)[C@H]1O [STR]
- clearing of the Δsdh1 mutant by single drugs vs parental [1]: this was not true

SMILES: CC[C@@H](CO)NCCN[C@@H](CC)CO [EMB, Ethambutol, reference compound]
- clearing of the Δsdh1 mutant by single drugs vs parental [1]: this was not true

SMILES: N#CC(C#N)=NNc1cccc(Cl)c1 [CCCP, carbonyl cyanide 3-chlorophenylhydrazone]
- time after which culture was unable to be rescued [5]: 22 to 24 days
- viable cells at end of experiment [5]: no viable cells remained
- parental inoculum remaining viable ([5]; Mycobacterium tuberculosis): 0.1%

SMILES: NNC(=O)c1ccncc1 [INH, Isoniazid]
- growth of INH-resistant strains [2]: not impaired
- clearing of the Δsdh1 mutant by single drugs vs parental [1]: this was not true
- killing of Δsdh1 or Δsdh2 mutants compared to the parental strain [6]: no effect
